Results published in patent US8853264B2, “Use of lignan compounds for treating or preventing inflammatory disease” (Newtree Industry Co., Ltd., priority 2005, dated 2014).

System: edemas of the rat ears induced by TPA
Assay: TPA-induced rat ear edema inhibition test
Type: in vivo, Wistar rats
Conditions: for Edema thickness: topical in acetone 30 min after TPA, measured after 8 hours
Experimental: The anti-inflammatory activity of the lignan compound isolated and purified in <Example 1> was tested in animal models. The anti-inflammatory activity was measured by edema inhibition test on rats. As the test animals, 5-week-old Wistar rats (DaeHan Biolink Co., Ltd, Korea) were used. The animals were provided with standard pellet forming rat feed (Cheiljedang Corporation, Korea) and given freely to feed and water. Also, the animals were housed in conditions of 12-hr light/12-hr dark cycle, temperature of 25±2° C. and humidity of 60±10%. Inflammation inducing agent TPA (12-O-tetradecanoylphorbol-13-acetate; Sigma) was dissolved in acetone to a concentration of 200 μg/mL. The edemas of the rat ears were induced by applying the TPA solution locally to each of the outer and inner faces of the ear in an amount of 10 μl/ear (4 μg/ear). The macelignan purified in <Example 1> and non-steroidal anti-inflammatory drug indomethacin as a control substance were dissolved in acetone and used in amounts of 20, 200 and 2000 μg/ear. Each of the macelignan and the indomethacin was applied locally to the rat ears at 30 minutes after treatment with TPA. A control group was locally applied with acetone. The thickness of the rat ears was measured with a caliper 8 hours after treatment with each of the substances. An increase in the ear thickness in the group treated with the sample was compared to that of the group untreated with the sample, and inflammation inhibitory effect was measured by calculating percent edema inhibition.

SMILES: COc1ccc2c(c1)c(CC(=O)O)c(C)n2C(=O)c1ccc(Cl)cc1 [indomethacin, reference compound]
- Edema inhibition (dose 20 μg/ear): 25.0%
- Edema thickness (dose 20 μg/ear): 185 ± 5 μm
- Edema inhibition (dose 200 μg/ear): 56.5%
- Edema thickness (dose 200 μg/ear): 108 ± 8 μm
- Edema inhibition (dose 2000 μg/ear): 74.2%
- Edema thickness (dose 2000 μg/ear): 64 ± 7 μm
